Test results published in PubChem BioAssay (NCI).
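48-hour exposure; five concentrations; linearly interpolated endpoints. GI50 is the concentration that inhibits growth by half. TGI denotes the concentration required for complete inhibition of growth.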

Columns and labels:
Experiment in all cases: inhibition of tumour cell growth, NCI panel, 48 h
HT29 colon = system: HT29 colon
HCT-15 colon = system: HCT-15 colon
SF-268 CNS = system: SF-268 CNS
MOLT-4 leukemia = system: MOLT-4 leukemia
MALME-3M melanoma = system: MALME-3M melanoma
DU-145 prostate = system: DU-145 prostate
U251 CNS = system: U251 CNS
NCI-H226 lung = system: NCI-H226 lung
SK-OV-3 ovarian = system: SK-OV-3 ovarian
MDA-MB-231 breast = system: MDA-MB-231 breast
SN12C renal = system: SN12C renal
NCI-H460 lung = system: NCI-H460 lung
OVCAR-5 ovarian = system: OVCAR-5 ovarian
CCRF-CEM leukemia = system: CCRF-CEM leukemia
CAKI-1 renal = system: CAKI-1 renal
OVCAR-4 ovarian = system: OVCAR-4 ovarian
A498 renal = system: A498 renal
OVCAR-3 ovarian = system: OVCAR-3 ovarian
IGROV1 ovarian = system: IGROV1 ovarian
786-0 renal = system: 786-0 renal
LOX IMVI melanoma = system: LOX IMVI melanoma
PC-3 prostate = system: PC-3 prostate
UACC-257 melanoma = system: UACC-257 melanoma
KM12 colon = system: KM12 colon
MCF7 breast = system: MCF7 breast
K-562 leukemia = system: K-562 leukemia
HCT-116 colon = system: HCT-116 colon
BT-549 breast = system: BT-549 breast
NCI-H23 lung = system: NCI-H23 lung
T-47D breast = system: T-47D breast
HCC-2998 colon = system: HCC-2998 colon
NCI-H522 lung = system: NCI-H522 lung
SNB-75 CNS = system: SNB-75 CNS
HOP-92 NSCLC = system: HOP-92 NSCLC
SK-MEL-5 melanoma = system: SK-MEL-5 melanoma
TK-10 renal = system: TK-10 renal
SW-620 colon = system: SW-620 colon
UO-31 renal = system: UO-31 renal
COLO 205 colon = system: COLO 205 colon
OVCAR-8 ovarian = system: OVCAR-8 ovarian
UACC-62 melanoma = system: UACC-62 melanoma
MDA-MB-435 = system: MDA-MB-435
SF-539 CNS = system: SF-539 CNS
SK-MEL-2 melanoma = system: SK-MEL-2 melanoma
HOP-62 NSCLC = system: HOP-62 NSCLC
ACHN renal = system: ACHN renal
MDA-MB-468 breast = system: MDA-MB-468 breast
RXF 393 renal = system: RXF 393 renal
SNB-19 CNS = system: SNB-19 CNS
SR leukemia = system: SR leukemia
HS 578T breast = system: HS 578T breast
EKVX NSCLC = system: EKVX NSCLC
RPMI-8226 leukemia = system: RPMI-8226 leukemia
SK-MEL-28 melanoma = system: SK-MEL-28 melanoma
SF-295 CNS = system: SF-295 CNS
M14 melanoma = system: M14 melanoma
A549 NSCLC = system: A549 NSCLC
HL-60(TB) leukemia = system: HL-60(TB) leukemia
NCI/ADR-RES ovarian = system: NCI/ADR-RES ovarian

## CN1CCN(Cc2ccc(C(=O)Nc3cccc(Nc4ccc5cc(O)ccc5n4)c3)cc2C(F)(F)F)CC1
HT29 colon
  GI50: 3.37 µM
  TGI: 12 µM
HCT-15 colon
  GI50: 2.09 µM
  TGI: 4.49 µM
SF-268 CNS
  GI50: 10.4 µM
  TGI: 23.8 µM
MOLT-4 leukemia
  GI50: 3.52 µM
  TGI: 9.49 µM
MALME-3M melanoma
  GI50: 1.59 µM
  TGI: 3.15 µM
DU-145 prostate
  GI50: 10.5 µM
  TGI: 22.3 µM
U251 CNS
  GI50: 2.17 µM
  TGI: 6.49 µM
NCI-H226 lung
  GI50: 16 µM
  TGI: 33.3 µM
SK-OV-3 ovarian
  GI50: 16.5 µM
  TGI: 30.5 µM
MDA-MB-231 breast
  GI50: 2.54 µM
  TGI: 7.9 µM
SN12C renal
  GI50: 14.1 µM
  TGI: 27.6 µM
NCI-H460 lung
  GI50: 3.84 µM
  TGI: 15.2 µM
OVCAR-5 ovarian
  GI50: 14.2 µM
  TGI: 27.7 µM
CCRF-CEM leukemia
  GI50: 3.48 µM
  TGI: 17.2 µM
CAKI-1 renal
  GI50: 11.9 µM
  TGI: 24.3 µM
OVCAR-4 ovarian
  GI50: 11.2 µM
  TGI: 23.8 µM
A498 renal
  GI50: 22.5 µM
  TGI: 37.1 µM
OVCAR-3 ovarian
  GI50: 11.2 µM
  TGI: 23.4 µM
IGROV1 ovarian
  GI50: 16.6 µM
  TGI: 31.3 µM
786-0 renal
  GI50: 3.13 µM
  TGI: 10.9 µM
LOX IMVI melanoma
  GI50: 1.73 µM
  TGI: 3.19 µM
PC-3 prostate
  GI50: 4.68 µM
  TGI: 20.1 µM
UACC-257 melanoma
  GI50: 7.35 µM
  TGI: 20.6 µM
KM12 colon
  GI50: 3.17 µM
  TGI: 10.9 µM
MCF7 breast
  GI50: 2.46 µM
  TGI: 7.31 µM
K-562 leukemia
  GI50: 1.88 µM
  TGI: 4.51 µM
HCT-116 colon
  GI50: 3.93 µM
  TGI: 15 µM
BT-549 breast
  GI50: 12.2 µM
  TGI: 25.4 µM
NCI-H23 lung
  GI50: 13.9 µM
  TGI: 28.5 µM
T-47D breast
  GI50: 14.6 µM
  TGI: 32.2 µM
HCC-2998 colon
  GI50: 2.39 µM
  TGI: 5.22 µM
NCI-H522 lung
  GI50: 4.82 µM
  TGI: 17.5 µM
SNB-75 CNS
  GI50: 0.656 µM
  TGI: 15.3 µM
HOP-92 NSCLC
  GI50: 3.39 µM
  TGI: 17 µM
SK-MEL-5 melanoma
  GI50: 2.35 µM
  TGI: 6.4 µM
TK-10 renal
  GI50: 21.4 µM
  TGI: 35.8 µM
SW-620 colon
  GI50: 2.3 µM
  TGI: 4.57 µM
UO-31 renal
  GI50: 13.4 µM
  TGI: 27.3 µM
COLO 205 colon
  GI50: 10.2 µM
  TGI: 23.8 µM
OVCAR-8 ovarian
  GI50: 13.2 µM
  TGI: 28.4 µM
UACC-62 melanoma
  GI50: 15.4 µM
  TGI: 29.2 µM
MDA-MB-435
  GI50: 8.53 µM
  TGI: 20.8 µM
SF-539 CNS
  GI50: 1.98 µM
  TGI: 12.2 µM
SK-MEL-2 melanoma
  GI50: 13.5 µM
  TGI: 26.4 µM
HOP-62 NSCLC
  GI50: 12.1 µM
  TGI: 24.9 µM
ACHN renal
  GI50: 7.59 µM
  TGI: 23.1 µM
MDA-MB-468 breast
  GI50: 2.23 µM
  TGI: 6.47 µM
RXF 393 renal
  GI50: 3.55 µM
  TGI: 15.7 µM
SNB-19 CNS
  GI50: 13.7 µM
  TGI: 27.5 µM
SR leukemia
  GI50: 2.68 µM
  TGI: 8.5 µM
HS 578T breast
  GI50: 4.17 µM
  TGI: 35.3 µM
EKVX NSCLC
  GI50: 14.2 µM
  TGI: 28.3 µM
RPMI-8226 leukemia
  GI50: 2.65 µM
  TGI: 7.1 µM
SK-MEL-28 melanoma
  GI50: 1.79 µM
  TGI: 3.32 µM
SF-295 CNS
  GI50: 2.33 µM
  TGI: 5.64 µM
M14 melanoma
  GI50: 9.06 µM
  TGI: 23.5 µM
A549 NSCLC
  GI50: 8.7 µM
  TGI: 22.3 µM
HL-60(TB) leukemia
  GI50: 2.58 µM
  TGI: 4.86 µM

## CCN(CC)CCOc1ccc(Nc2ncc3cc(-c4ccc(O)c(C#N)c4)c(=O)n(C)c3n2)cc1
HT29 colon
  GI50: 9.92 µM
  TGI: 41.3 µM
HCT-15 colon
  GI50: > 100 µM
  TGI: > 100 µM
SF-268 CNS
  GI50: 24 µM
  TGI: > 100 µM
MOLT-4 leukemia
  GI50: 17.4 µM
  TGI: 66.4 µM
MALME-3M melanoma
  GI50: 15.1 µM
  TGI: 28.5 µM
DU-145 prostate
  GI50: > 100 µM
  TGI: > 100 µM
U251 CNS
  GI50: 18.6 µM
  TGI: 35.6 µM
NCI-H226 lung
  GI50: 13 µM
  TGI: 53.4 µM
SK-OV-3 ovarian
  GI50: > 100 µM
  TGI: > 100 µM
MDA-MB-231 breast
  GI50: 19.3 µM
  TGI: > 100 µM
SN12C renal
  GI50: 62.3 µM
  TGI: > 100 µM
NCI-H460 lung
  GI50: 37.5 µM
  TGI: > 100 µM
OVCAR-5 ovarian
  GI50: > 100 µM
  TGI: > 100 µM
CCRF-CEM leukemia
  GI50: 16.1 µM
  TGI: 53.5 µM
CAKI-1 renal
  GI50: 48 µM
  TGI: > 100 µM
OVCAR-4 ovarian
  GI50: > 100 µM
  TGI: > 100 µM
A498 renal
  GI50: 62.6 µM
  TGI: > 100 µM
OVCAR-3 ovarian
  GI50: > 100 µM
  TGI: > 100 µM
IGROV1 ovarian
  GI50: 68 µM
  TGI: > 100 µM
786-0 renal
  GI50: 15 µM
  TGI: 29 µM
LOX IMVI melanoma
  GI50: 22.6 µM
  TGI: > 100 µM
PC-3 prostate
  GI50: > 100 µM
  TGI: > 100 µM
UACC-257 melanoma
  GI50: 18.8 µM
  TGI: 37.9 µM
KM12 colon
  GI50: 28.3 µM
  TGI: > 100 µM
MCF7 breast
  GI50: 15.3 µM
  TGI: 32.9 µM
K-562 leukemia
  GI50: 5.45 µM
  TGI: > 100 µM
HCT-116 colon
  GI50: 30.7 µM
  TGI: > 100 µM
BT-549 breast
  GI50: 24.8 µM
  TGI: 59.3 µM
NCI-H23 lung
  GI50: > 100 µM
  TGI: > 100 µM
T-47D breast
  GI50: 15.6 µM
  TGI: 38.9 µM
HCC-2998 colon
  GI50: > 100 µM
  TGI: > 100 µM
NCI-H522 lung
  GI50: 17.4 µM
  TGI: 35 µM
SNB-75 CNS
  GI50: 2.55 µM
  TGI: > 100 µM
HOP-92 NSCLC
  GI50: 4.46 µM
  TGI: 22.8 µM
SK-MEL-5 melanoma
  GI50: 13.9 µM
  TGI: 27.2 µM
TK-10 renal
  GI50: > 100 µM
  TGI: > 100 µM
SW-620 colon
  GI50: 55.4 µM
  TGI: > 100 µM
UO-31 renal
  GI50: > 100 µM
  TGI: > 100 µM
COLO 205 colon
  GI50: 25 µM
  TGI: > 100 µM
OVCAR-8 ovarian
  GI50: > 100 µM
  TGI: > 100 µM
UACC-62 melanoma
  GI50: 15.4 µM
  TGI: 29.3 µM
MDA-MB-435
  GI50: 18.4 µM
  TGI: 36.5 µM
SF-539 CNS
  GI50: 17.8 µM
  TGI: 64.3 µM
SK-MEL-2 melanoma
  GI50: 15.7 µM
  TGI: 31.9 µM
HOP-62 NSCLC
  GI50: > 100 µM
  TGI: > 100 µM
ACHN renal
  GI50: 49.3 µM
  TGI: > 100 µM
MDA-MB-468 breast
  GI50: 15.6 µM
  TGI: 30.2 µM
RXF 393 renal
  GI50: 3.28 µM
  TGI: 14.1 µM
SNB-19 CNS
  GI50: 25.8 µM
  TGI: 57.3 µM
HS 578T breast
  GI50: 6.77 µM
  TGI: 30.8 µM
EKVX NSCLC
  GI50: > 100 µM
  TGI: > 100 µM
RPMI-8226 leukemia
  GI50: 26.7 µM
  TGI: > 100 µM
SK-MEL-28 melanoma
  GI50: 17.2 µM
  TGI: 31.5 µM
NCI/ADR-RES ovarian
  GI50: > 100 µM
  TGI: > 100 µM
SF-295 CNS
  GI50: > 100 µM
  TGI: > 100 µM
M14 melanoma
  GI50: 13.4 µM
  TGI: 27.1 µM
A549 NSCLC
  GI50: > 100 µM
  TGI: > 100 µM
HL-60(TB) leukemia
  GI50: > 100 µM
  TGI: > 100 µM
